One test has as its target CK1δ (Homo sapiens (Human), UniProt P48730). Description: CK1δ kinase assay (Caliper LabChip, fluoresceinated peptide substrate). The conditions noted are these: 200 pM CK1δ, 50 μM ATP, 1.5 μM peptide substrate, 22 hours room temperature. Format: biochemical. The method, then:
(§1) CK1ε and CK1δ Kinase Assays
(§2) The kinase assay was performed in V-bottom 384-well plates. […] The reaction was incubated at room temperature for 22 hours and terminated by adding 45 μl of 35 mM EDTA to each sample. […] Compounds were dissolved at 10 mM in dimethylsulfoxide (DMSO) and evaluated at eleven concentrations. IC50 values were derived by non-linear regression analysis.

In another test the target is CK1ε (Homo sapiens (Human), UniProt P49674). As to the kind of experiment: CK1ε kinase assay (Caliper LabChip, fluoresceinated peptide substrate). Format: biochemical. The settings on record: 200 pM CK1ε, 50 μM ATP, 1.5 μM peptide substrate, 22 hours room temperature. As for the experimental part: as §1, §2
Chain of CK1ε (P49674 whole entry): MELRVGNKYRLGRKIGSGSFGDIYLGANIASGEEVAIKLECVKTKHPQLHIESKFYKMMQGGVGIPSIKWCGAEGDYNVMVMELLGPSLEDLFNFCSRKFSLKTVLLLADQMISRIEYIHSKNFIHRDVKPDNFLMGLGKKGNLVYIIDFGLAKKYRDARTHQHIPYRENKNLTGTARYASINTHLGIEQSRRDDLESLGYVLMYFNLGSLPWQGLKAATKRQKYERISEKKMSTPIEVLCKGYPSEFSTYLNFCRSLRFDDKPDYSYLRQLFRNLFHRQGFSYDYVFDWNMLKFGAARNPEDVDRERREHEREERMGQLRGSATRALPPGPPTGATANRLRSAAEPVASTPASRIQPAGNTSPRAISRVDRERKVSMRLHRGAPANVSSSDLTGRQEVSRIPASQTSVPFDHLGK

SMILES strings stand for the structures.

Chain of CK1δ (P48730 whole entry): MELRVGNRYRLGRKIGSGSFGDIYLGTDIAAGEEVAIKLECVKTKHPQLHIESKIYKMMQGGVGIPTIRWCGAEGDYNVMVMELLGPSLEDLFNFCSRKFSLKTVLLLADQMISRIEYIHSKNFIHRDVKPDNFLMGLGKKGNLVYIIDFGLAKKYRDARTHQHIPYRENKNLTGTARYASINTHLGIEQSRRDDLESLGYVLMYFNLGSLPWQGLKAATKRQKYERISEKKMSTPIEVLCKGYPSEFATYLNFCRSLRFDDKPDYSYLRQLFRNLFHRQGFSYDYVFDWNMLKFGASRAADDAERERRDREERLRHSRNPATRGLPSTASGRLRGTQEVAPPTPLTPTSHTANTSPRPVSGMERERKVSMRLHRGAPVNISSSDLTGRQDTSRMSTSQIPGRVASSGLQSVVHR

Consider `Cc1nc(-c2ccncc2)sc1C(=O)Nc1cn2nc(-c3cn(C)nc3-c3ccc(F)cc3)ccc2n1` [Compound 4, N-(6-(3-(4-fluorophenyl)-1-methyl-1H-pyrazol-4-yl)imidazo[1,2-b]pyridazin-2-yl)-4-methyl-2-(pyridin-4-yl)thiazol-5-carboxamide], for which the results for the IC50 at CK1δ and against CK1ε were 3.7 nM and 13.7 nM, respectively.

For `Cn1nc(-c2ccc(F)cc2)c(-c2ccc3nc(NC(=O)c4ccnc(N5CCOCC5)c4)cn3n2)c1C1CCN(CCCF)CC1` [Compound 162, N-(6-(3-(4-Fluorophenyl)-5-(1-(3-fluoropropyl)piperidin-4-yl)-1-methyl-1H-pyrazol-4-yl)imidazo[1,2-b]pyridazin-2-yl)-2-morpholinoisonicotinamide], the IC50 against CK1δ was 0.5 nM; against CK1ε, 17.5 nM.

For the compound `COc1ccc(F)c(C(=O)Nc2cn3nc(-c4cn(C)nc4-c4ccc(F)cc4)ccc3n2)c1` [Compound 44, 2-fluoro-N-(6-(3-(4-fluorophenyl)-1-methyl-1H-pyrazol-4-yl)imidazo[1,2-b]pyridazin-2-yl)-5-methoxybenzamide], the IC50 on CK1δ worked out at 5.6 nM; against CK1ε, 21.2 nM.

Consider `Cc1nc(-c2ccncc2)sc1C(=O)Nc1cn2nc(-c3c(-c4ccc(F)cc4)nn(C)c3C3CCNCC3)ccc2n1` [Compound 179, N-(6-(3-(4-Fluorophenyl)-1-methyl-5-(piperidin-4-yl)-1H-pyrazol-4-yl)imidazo[1,2-b]pyridazin-2-yl)-4-methyl-2-(pyridin-4-yl)thiazole-5-carboxamide], for which the results for the IC50 on CK1δ and against CK1ε were 1.4 nM and 1.5 nM, respectively.

In the case of `Cn1nc(-c2ccc(F)cc2)c(-c2ccc3nc(NC(=O)c4ccncc4)cn3n2)c1C1CCN(Cc2cocn2)CC1` [Compound 172, N-(6-(3-(4-fluorophenyl)-1-methyl-5-(1-(oxazol-4-ylmethyl)piperidin-4-yl)-1H-pyrazol-4-yl)imidazo[1,2-b]pyridazin-2-yl) isonicotinamide], the IC50 at CK1δ was 4.5 nM; against CK1ε, 10.4 nM.

Turning to `Cn1cc(-c2ccc3nc(NC(=O)c4ccnc(N5CCOCC5)c4)cn3n2)c(-c2ccc(F)cc2)n1` [Compound 69, N-(6-(3-(4-fluorophenyl)-1-methyl-1H-pyrazol-4-yl)imidazo[1,2-b]pyridazin-2-yl)-2-morpholinoisonicotinamide], the IC50 against CK1δ was 2.3 nM; on CK1ε, 4.8 nM.

Turning to `Cn1cc(-c2ccc3nc(NC(=O)C4CC4)cn3n2)c(-c2ccc(F)cc2)n1` [Compound 85, N-(6-(3-(4-fluorophenyl)-1-methyl-1H-pyrazol-4-yl)imidazo[1,2-b]pyridazin-2-yl)cyclopropanecarboxamide], the values for the 50% inhibitory concentration (IC50) against CK1δ and on CK1ε were 7 nM and 50.1 nM, respectively.

For the compound `Cn1nc(-c2ccc(F)cc2)c(-c2ccc3nc(NC(=O)c4ccnc(N5CCOCC5)c4)cn3n2)c1C1CCN(CCC(F)(F)F)CC1` [Compound 161, N-(6-(3-(4-Fluorophenyl)-1-methyl-5-(1-(3,3,3-trifluoropropyl)piperidin-4-yl)-1H-pyrazol-4-yl)imidazo[1,2-b]pyridazin-2-yl)-2-morpholinoisonicotinamide], the IC50 on CK1δ was found to be 1.7 nM; on CK1ε, 22.9 nM.

As for `Cn1nc(-c2ccc(F)cc2)c(-c2ccc3nc(NC(=O)c4ccncc4)cn3n2)c1C1CCN(Cc2cc[nH]n2)CC1` [Compound 170, N-(6-(5-(1-((1H-pyrazol-3-yl)methyl)piperidin-4-yl)-3-(4-fluorophenyl)-1-methyl-1H-pyrazol-4-yl)imidazo[1,2-b]pyridazin-2-yl) isonicotinamide], the IC50 came out at 2.6 nM at CK1δ and 7.4 nM against CK1ε.

As for `Cc1nocc1C(=O)Nc1cn2nc(-c3cn(C)nc3-c3ccc(F)cc3)ccc2n1` [Compound 12, N-(6-(3-(4-fluorophenyl)-1-methyl-1H-pyrazol-4-yl)imidazo[1,2-b]pyridazin-2-yl)-3-methylisoxazole-4-carboxamide], the IC50 on CK1δ turned out to be 7.3 nM; against CK1ε it was 28.8 nM.

Take `Cn1cc(-c2ccc3nc(NC(=O)c4ncc(-c5ccccn5)s4)cn3n2)c(-c2ccc(F)cc2)n1` [Compound 82, N-(6-(3-(4-fluorophenyl)-1-methyl-1H-pyrazol-4-yl)imidazo[1,2-b]pyridazin-2-yl)-5-(pyridin-2-yl)thiazole-2-carboxamide]: the results for the IC50 against CK1δ and against CK1ε were 3.3 nM and 71.5 nM, respectively.

With `Cc1nc(-c2ccncc2)sc1C(=O)Nc1cn2nc(-c3c(-c4ccc(F)cc4)nn(C)c3C3CCN(CCC#N)CC3)ccc2n1` [Compound 183, N-(6-(5-(1-(2-Cyanoethyl)piperidin-4-yl)-3-(4-fluorophenyl)-1-methyl-1H-pyrazol-4-yl)imidazo[1,2-b]pyridazin-2-yl)-4-methyl-2-(pyridin-4-yl)thiazole-5-carboxamide], the IC50 against CK1δ stood at 0.4 nM; against CK1ε, 2.4 nM.

Take `Cc1nc(-c2cccnc2)sc1C(=O)Nc1cn2nc(-c3c(-c4ccc(F)cc4)nn(C)c3C3CCN(C)CC3)ccc2n1` [Compound 175, N-(6-(3-(4-Fluorophenyl)-1-methyl-5-(1-methylpiperidin-4-yl)-1H-pyrazol-4-yl)imidazo[1,2-b]pyridazin-2-yl)-4-methyl-2-(pyridin-3-yl)thiazole-5-carboxamide]: the IC50 stood at 3 nM on CK1δ and 4 nM against CK1ε.

`COc1cccc(C(=O)Nc2cn3nc(-c4cn(C)nc4-c4ccc(F)cc4)ccc3n2)n1` [Compound 67, N-(6-(3-(4-fluorophenyl)-1-methyl-1H-pyrazol-4-yl)imidazo[1,2-b]pyridazin-2-yl)-6-methoxypicolinamide]: the IC50 is 14.2 nM at CK1δ and 13.3 nM against CK1ε.

For the compound `Cn1nc(-c2ccc(F)cc2)c(-c2ccc3nc(NC(=O)c4ccnc(F)c4)cn3n2)c1C1CCN(CCC#N)CC1` [Compound 156, N-(6-(5-(1-(2-Cyanoethyl)piperidin-4-yl)-3-(4-fluorophenyl)-1-methyl-1H-pyrazol-4-yl)imidazo[1,2-b]pyridazin-2-yl)-2-fluoroisonicotinamide], the IC50 against CK1δ turned out to be 0.4 nM; against CK1ε, 2.6 nM.

Consider `COCCN1CCN(c2c(-c3ccc4nc(NC(=O)c5ccnc(F)c5)cn4n3)c(-c3ccc(F)cc3)nn2C)CC1` [Compound 120, 2-Fluoro-N-(6-(3-(4-fluorophenyl)-5-(4-(2-methoxyethyl)piperazin-1-yl)-1-methyl-1H-pyrazol-4-yl)imidazo[1,2-b]pyridazin-2-yl)isonicotinamide], for which the IC50 against CK1δ was found to be 0.73 nM; against CK1ε, 18.6 nM.

On to `COc1ncc(C(=O)Nc2cn3nc(-c4cn(C)nc4-c4ccc(F)cc4)ccc3n2)cn1` [Compound 84, N-(6-(3-(4-fluorophenyl)-1-methyl-1H-pyrazol-4-yl)imidazo[1,2-b]pyridazin-2-yl)-2-methoxypyrimidine-5-carboxamide], for which the IC50 on CK1δ is 435 nM; against CK1ε, 1020 nM.

As for `Cn1cc(-c2ccc3nc(NC(=O)c4ccc(Br)cc4F)cn3n2)c(-c2ccc(F)cc2)n1` [Compound 42, 4-bromo-2-fluoro-N-(6-(3-(4-fluorophenyl)-1-methyl-1H-pyrazol-4-yl)imidazo[1,2-b]pyridazin-2-yl)benzamide], the IC50 was 2.3 nM at CK1δ and 13.7 nM against CK1ε.

Regarding `Cn1nc(-c2ccc(F)cc2)c(-c2ccc3nc(NC(=O)c4ccncc4)cn3n2)c1C1CCN(Cc2nccs2)CC1` [Compound 173, N-(6-(3-(4-fluorophenyl)-1-methyl-5-(1-(thiazol-2-ylmethyl)piperidin-4-yl)-1H-pyrazol-4-yl)imidazo[1,2-b]pyridazin-2-yl) isonicotinamide], the figures for the IC50 on CK1δ and against CK1ε were 1.5 nM and 6.4 nM, respectively.

For `COc1cc(F)cc(C(=O)Nc2cn3nc(-c4cn(C)nc4-c4ccc(F)cc4)ccc3n2)c1` [Compound 45, 3-fluoro-N-(6-(3-(4-fluorophenyl)-1-methyl-1H-pyrazol-4-yl)imidazo[1,2-b]pyridazin-2-yl)-5-methoxybenzamide], the figures for the IC50 at CK1δ and at CK1ε were 1.9 nM and 6.8 nM, respectively.

Regarding `Cn1nc(-c2ccc(F)cc2)c(-c2ccc3nc(NC(=O)c4ccnc(F)c4)cn3n2)c1N1CCN(CC(N)=O)CC1` [Compound 124, N-(6-(5-(4-(2-Amino-2-oxoethyl)piperazin-1-yl)-3-(4-fluorophenyl)-1-methyl-1H-pyrazol-4-yl)imidazo[1,2-b]pyridazin-2-yl)-2-fluoroisonicotinamide], the results for the IC50 against CK1δ and against CK1ε were 0.2 nM and 1.3 nM, respectively.

Take `Cn1nc(-c2ccc(F)cc2)c(-c2ccc3nc(NC(=O)c4ccncc4)cn3n2)c1N1CCN(CCC(F)(F)F)CC1` [Compound 130, N-(6-(3-(4-Fluorophenyl)-1-methyl-5-(4-(3,3,3-trifluoropropyl)piperazin-1-yl)-1H-pyrazol-4-yl)imidazo[1,2-b]pyridazin-2-yl)isonicotinamide]: the IC50 at CK1δ came to 1.4 nM; against CK1ε, 23.5 nM.

`Cc1nc(-c2cccnc2)sc1C(=O)Nc1cn2nc(-c3c(-c4ccc(F)cc4)nn(C)c3N3CCOCC3)ccc2n1` [Compound 146, N-(6-(3-(4-fluorophenyl)-1-methyl-5-morpholino-1H-pyrazol-4-yl)imidazo [1,2-b]pyridazin-2-yl)-4-methyl-2-(pyridin-3-yl)thiazole-5-carboxamide]: the values for the IC50 against CK1δ and on CK1ε were 0.5 nM and 4.9 nM, respectively.

For `Cn1nc(-c2ccc(F)cc2)c(-c2ccc3nc(NC(=O)c4ccnc(F)c4)cn3n2)c1C1CCN(C(=O)CC(F)(F)F)CC1` [Compound 151, 2-Fluoro-N-(6-(3-(4-fluorophenyl)-1-methyl-5-(1-(3,3,3-trifluoropropanoyl)piperidin-4-yl)-1H-pyrazol-4-yl)imidazo[1,2-b]pyridazin-2-yl)isonicotinamide], the concentration for half-maximal inhibition (IC50) worked out at 0.5 nM on CK1δ and 5.7 nM against CK1ε.

The record behind these values is US9475817B2 (BRISTOL-MYERS SQUIBB COMPANY, priority 2012, dated 2016).
